Experimental data published in PMC3199943, “Screening the MayBridge Rule of 3 Fragment Library for Compounds That Interact with the Trypanosoma brucei myo-Inositol-3-Phosphate Synthase and/or Show Trypanocidal Activity” (Molecular Biology International, 2011).
Where two headings read alike, the source gives them in different places.

Experiments:
TbINO1 = molecular target: T1, TbINO1 (Trypanosoma brucei brucei, UniProt Q5QQ46); assay: biochemical; type: binding
T1 sequence (Q5QQ46 1-528): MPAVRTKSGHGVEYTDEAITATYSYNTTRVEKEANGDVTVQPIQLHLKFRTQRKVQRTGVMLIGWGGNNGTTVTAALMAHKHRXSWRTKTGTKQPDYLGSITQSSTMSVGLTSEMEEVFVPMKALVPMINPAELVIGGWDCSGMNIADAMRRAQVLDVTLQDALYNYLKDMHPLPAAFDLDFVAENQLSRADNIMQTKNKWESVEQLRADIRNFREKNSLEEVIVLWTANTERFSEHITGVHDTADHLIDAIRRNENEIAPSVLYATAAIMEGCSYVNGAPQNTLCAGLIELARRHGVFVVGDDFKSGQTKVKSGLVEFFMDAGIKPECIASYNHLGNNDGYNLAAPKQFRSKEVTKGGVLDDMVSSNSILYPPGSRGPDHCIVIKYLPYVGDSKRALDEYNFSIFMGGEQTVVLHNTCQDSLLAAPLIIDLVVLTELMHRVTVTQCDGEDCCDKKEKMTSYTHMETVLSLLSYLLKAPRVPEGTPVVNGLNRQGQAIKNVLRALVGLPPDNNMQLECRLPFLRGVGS

HeLa cells = assay: cells; settings: for viability at 500 µM / CC50: Homo sapiens, HeLa; for viability at 500 µM: 65 h; for HeLa Cells Alamar Blue: Supplementary Table 1, compound 0.5 mM, percentage of controls, mean ± SD (n=3) or SE (n=2); for CC50: read-out: HeLa ED50
Summary of the method: (§1)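 Seed HeLa/A549 at 2 × 10^4 cells/well in DMEM/10% FCS/2 mM L-Gln; treat ~65 h; add Alamar Blue, 5 h more.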

A549 cells = assay: Cytotoxicity against A549 cells, Alamar Blue; type: cell-based; settings: Supplementary Table 1, compound 0.5 mM, percentage of controls (n=1); for viability at 500 µM: Homo sapiens, A549, 65 h
Summary of the method: as §1

[1] = read-out: Tb Ino1 Tm Shift [˚C]
[2] = read-out: HeLa Cells Alamar Blue
[3] = Supplementary Table 1, compound 1mM, mean ± SD from Boltzman curve fitting
[4] = Supplementary Table 1, compound 1mM, mean ± SD from Boltzman curve fitting, read-out: Tb Ino1 Tm Shift [˚C]
[5] = read-out: HeLa Cells Alamar Blue (% survival)

## COC(=O)c1cccs1 [compound 138, methyl thiophene‐2‐carboxylate]
TbINO1; [1]
  ΔTm at 1000 µM: 0.31 ± 0.05 °C
HeLa cells; [2]
  viability at 500 µM: 89.4 ± 9.3%
A549 cells
  viability at 500 µM: 121%

## Nc1cccc(-c2ccsc2)c1 [compound 404, 3‐thien‐3‐ylaniline]
TbINO1; [1]
  ΔTm at 1000 µM: 0.17 ± 0.05 °C
HeLa cells; [2]
  viability at 500 µM: 89.4 ± 17.7%
A549 cells
  viability at 500 µM: 83.3%

## N#Cc1ccnc(N2CCSCC2)c1 [compound 668, 2‐thiomorpholinoisonicotinonitrile]
TbINO1; [1]
  ΔTm at 1000 µM: 1.06 ± 0.07 °C
HeLa cells; [2]
  viability at 500 µM: 80.3 ± 19.6%
A549 cells
  viability at 500 µM: 98.5%

## NCc1csc(-c2cccs2)n1 [compound 599, [2‐(2‐thienyl)‐1,3‐thiazol‐4‐yl]methylamine]
TbINO1; [3]
  Tb Ino1 Tm Shift [˚C]: 0.41 ± 0.06 °C
HeLa cells
  HeLa Cells Alamar Blue: 71.9 ± 7.1 percentage of controls
A549 cells
  A549 Cells Alamar Blue: 98.4 percentage of controls

## O=C(O)Cc1coc2ccccc12 [compound 410, benzo[b]furan‐3‐ylacetic acid]
TbINO1; [1]
  ΔTm at 1000 µM: 0.8 ± 0.07 °C
HeLa cells; [2]
  viability at 500 µM: 54.1 ± 10.3%
A549 cells
  viability at 500 µM: 97.4%

## O=C(O)C12CC3CC(CC(O)(C3)C1)C2 [compound 597, 3‐hydroxyadamantane‐1‐carboxylic acid]
TbINO1; [1]
  ΔTm at 1000 µM: 0.29 ± 0.06 °C
HeLa cells; [2]
  viability at 500 µM: 75.2 ± 12.6%
A549 cells
  viability at 500 µM: 79.4%

## CCCc1nccs1 [compound 82, 2‐propyl‐1,3‐thiazole]
TbINO1; [1]
  ΔTm at 1000 µM: 0.22 ± 0.07 °C
HeLa cells; [2]
  viability at 500 µM: 96.8 ± 11%
A549 cells
  viability at 500 µM: 114%

## Cc1nc(C#N)cs1 [compound 67, 2‐methyl‐1,3‐thiazole‐4‐carbonitrile]
TbINO1; [1]
  ΔTm at 1000 µM: 0.01 ± 0.07 °C
HeLa cells; [2]
  viability at 500 µM: 96.1 ± 9.2%
A549 cells
  viability at 500 µM: 89.7%

## N#Cc1c(N)cccc1F [compound 115, 2‐amino‐6‐fluorobenzonitrile]
TbINO1; [1]
  ΔTm at 1000 µM: 0.17 ± 0.07 °C
HeLa cells; [2]
  viability at 500 µM: 71.3 ± 0.6%
A549 cells
  viability at 500 µM: 77.4%

## Nc1ccccc1OC(F)(F)F [compound 418, 2‐(trifluoromethoxy)aniline]
TbINO1; [1]
  ΔTm at 1000 µM: 0.14 ± 0.07 °C
HeLa cells; [2]
  viability at 500 µM: 99.1 ± 14.1%
A549 cells
  viability at 500 µM: 97.9%

## CN(C)C1(CN)CCSC1 (stereo not shown) [compound 268, 3‐(aminomethyl)‐N,N‐dimethyltetrahydro‐3‐thiophenamine]
TbINO1; [3]
  Tb Ino1 Tm Shift [˚C]: 0.32 ± 0.07 °C
HeLa cells
  HeLa Cells Alamar Blue: 88.4 ± 17.9 percentage of controls
A549 cells
  A549 Cells Alamar Blue: 87.3 percentage of controls

## Cc1nc(-c2ccc(CO)cc2)cs1 [compound 667, [4‐(2‐methyl‐1,3‐thiazol‐4‐yl)phenyl]methanol]
TbINO1; [3]
  Tb Ino1 Tm Shift [˚C]: 0.4 ± 0.07 °C
HeLa cells
  HeLa Cells Alamar Blue: 76.7 ± 4.3 percentage of controls
A549 cells
  A549 Cells Alamar Blue: 103.8 percentage of controls

## NCc1ccccc1N1CCOCC1 [compound 571, 2‐morpholinobenzylamine]
TbINO1; [1]
  ΔTm at 1000 µM: 0.06 ± 0.07 °C
HeLa cells; [2]
  viability at 500 µM: 95 ± 17.5%
A549 cells
  viability at 500 µM: 70.9%

## N#Cc1ccc(F)cc1 [compound 51, 4‐fluorobenzonitrile]
TbINO1; [4]
  ΔTm at 1000 µM: 0.1 ± 0.08 °C
HeLa cells; [2]
  viability at 500 µM: 90.9 ± 7.5%
A549 cells
  viability at 500 µM: 64.2%

## Nc1cccc(-c2cncnc2)c1 [compound 353, 3‐pyrimidin‐5‐ylaniline]
TbINO1; [1]
  ΔTm at 1000 µM: 0.44 ± 0.06 °C
HeLa cells; [2]
  viability at 500 µM: 78.7 ± 10%
A549 cells
  viability at 500 µM: 56.4%

## Nc1ccc(-c2ccco2)cc1 [compound 257, 4‐(2‐furyl)aniline]
TbINO1; [1]
  ΔTm at 1000 µM: 0.83 ± 0.04 °C
HeLa cells; [2]
  viability at 500 µM: 17 ± 12.7%
HeLa cells
  CC50: 114 ± 8 µM
A549 cells
  viability at 500 µM: 75.7%

## Cc1ccsc1CN [compound 83, (3‐methyl‐2‐thienyl)methylamine]
TbINO1; [1]
  ΔTm at 1000 µM: 0.43 ± 0.06 °C
HeLa cells; [2]
  viability at 500 µM: 95.4 ± 10%
A549 cells
  viability at 500 µM: 124%

## Cc1cc(C(=O)O)c(-c2ccccc2)o1 [compound 635, 5‐methyl‐2‐phenyl‐3‐furoic acid]
TbINO1; [1]
  ΔTm at 1000 µM: 0.38 ± 0.04 °C
HeLa cells; [2]
  viability at 500 µM: 17.7 ± 16.2%
A549 cells
  viability at 500 µM: 90.1%

## N#Cc1ccc(O)cc1F [compound 120, 2‐fluoro‐4‐hydroxybenzonitrile]
TbINO1; [1]
  ΔTm at 1000 µM: 0.41 ± 0.06 °C
HeLa cells; [2]
  viability at 500 µM: 18.6 ± 10.7%
A549 cells
  viability at 500 µM: 72.6%

## CC(=O)c1c(O)cccc1O [compound 204, 1-(2,6-dihydroxyphenyl)ethan-1-one]
TbINO1; read-out: TbIno1 Tm shift [°C]
  ΔTm at 1000 µM: 2.35 ± 0.06 °C
HeLa cells; [2]
  viability at 500 µM: 36.3 ± 12.5%
HeLa cells; [5]
  viability at 500 µM: 36.3 ± 12.5%
A549 cells
  viability at 500 µM: 34.4%

## c1cncc(Cn2cccc2)c1 [compound 248, 3‐(1H‐pyrrol‐1‐ylmethyl)pyridine]
TbINO1; [1]
  ΔTm at 1000 µM: 0 °C
HeLa cells; [2]
  viability at 500 µM: 91.3 ± 11.9%
A549 cells
  viability at 500 µM: 86.6%

## OCc1ccc2ccccc2n1 [compound 256, 2-quinolinylmethanol]
TbINO1; read-out: TbIno1 Tm shift [°C]
  ΔTm at 1000 µM: 2.2 ± 0.06 °C
HeLa cells; [2]
  viability at 500 µM: 99.2 ± 19.5%
HeLa cells; [5]
  viability at 500 µM: 99.2 ± 19.5%
HeLa cells
  CC50: 836 ± 68 µM
A549 cells
  viability at 500 µM: 119%

## COC(=O)c1sccc1O [compound 247, methyl 3‐hydroxythiophene‐2‐carboxylate]
TbINO1; [3]
  Tb Ino1 Tm Shift [˚C]: 0.2 ± 0.07 °C
HeLa cells
  HeLa Cells Alamar Blue: 95.4 ± 6.1 percentage of controls
A549 cells
  A549 Cells Alamar Blue: 108.7 percentage of controls

## COC(=O)C1NCCS1 (stereo not shown) [compound 44]
TbINO1; [1]
  ΔTm at 1000 µM: 0.11 ± 0.06 °C
TbINO1; read-out: TbIno1 Tm shift [°C]
  ΔTm at 1000 µM: 2.81 ± 0.1 °C
HeLa cells; [2]
  viability at 500 µM: 85.7 ± 19.3%
HeLa cells; [5]
  viability at 500 µM: 108 ± 15.9%
A549 cells
  viability at 500 µM: 75.7%

## O=C(O)c1cnccc1C(F)(F)F [compound 553, 4‐(trifluoromethyl)nicotinic acid]
TbINO1; [1]
  ΔTm at 1000 µM: 0.28 ± 0.07 °C
HeLa cells; [2]
  viability at 500 µM: 102 ± 12.4%
A549 cells
  viability at 500 µM: 103%

## Nc1cccc(-c2cnco2)c1 [compound 267, 3‐(1,3‐oxazol‐5‐yl)aniline]
TbINO1; [1]
  ΔTm at 1000 µM: 0.13 ± 0.09 °C
HeLa cells; [2]
  viability at 500 µM: 75 ± 15.2%
A549 cells
  viability at 500 µM: 79.8%

## O=C(O)c1cccc(-c2ccncc2)c1 [compound 614, 3‐pyrid‐4‐ylbenzoic acid]
TbINO1; [1]
  ΔTm at 1000 µM: 0.46 ± 0.12 °C
HeLa cells; [2]
  viability at 500 µM: 81.2 ± 15.9%
A549 cells
  viability at 500 µM: 66.3%

## NCCc1cccs1 [compound 81, 2‐(2‐thienyl)ethylamine]
TbINO1; [4]
  ΔTm at 1000 µM: 0.09 ± 0.07 °C
HeLa cells; [2]
  viability at 500 µM: 117 ± 8.9%
A549 cells
  viability at 500 µM: 119%

## c1ccc(-c2cnco2)cc1 [compound 156, 5‐phenyl‐1,3‐oxazole]
TbINO1; [1]
  ΔTm at 1000 µM: 0.95 ± 0.06 °C
HeLa cells; [2]
  viability at 500 µM: 77.5 ± 18.3%
A549 cells
  viability at 500 µM: 104%

## OC1CCC(C(F)(F)F)CC1 (stereo not shown) [compound 333, 4‐(trifluoromethyl)cyclohexan‐1‐ol]
TbINO1; [1]
  ΔTm at 1000 µM: 0.47 ± 0.04 °C
HeLa cells; [2]
  viability at 500 µM: 110 ± 4.4%
A549 cells
  viability at 500 µM: 114%

## Cc1ccc2cc(CO)ccc2n1 [compound 374, (2‐methyl‐6‐quinolinyl)methanol]
TbINO1; [1]
  ΔTm at 1000 µM: 0.1 ± 0.06 °C
HeLa cells; [2]
  viability at 500 µM: 53.2 ± 2.6%
A549 cells
  viability at 500 µM: 46.3%

## Cn1ccc(N)n1 [compound 8, 1‐methyl‐1H‐pyrazol‐3‐amine]
TbINO1; [1]
  ΔTm at 1000 µM: 0.09 ± 0.07 °C
HeLa cells; [2]
  viability at 500 µM: 107 ± 7.8%
A549 cells
  viability at 500 µM: 122%

## Cc1ccc(C#N)c(=O)[nH]1 [compound 109, 6‐methyl‐2‐oxo‐1,2‐dihydropyridine‐3‐carbonitrile]
TbINO1; [3]
  Tb Ino1 Tm Shift [˚C]: 0.22 ± 0.06 °C
HeLa cells
  HeLa Cells Alamar Blue: 97.4 ± 2 percentage of controls
A549 cells
  A549 Cells Alamar Blue: 118.7 percentage of controls

## O=C(O)Cc1c[nH]c2ccccc12 [compound 391, 2-(1H-indol-3-yl)acetic acid]
TbINO1; read-out: TbIno1 Tm shift [°C]
  ΔTm at 1000 µM: 1.67 ± 0.08 °C
HeLa cells; [2]
  viability at 500 µM: 42.6 ± 6.4%
HeLa cells; [5]
  viability at 500 µM: 42.6 ± 6.4%
A549 cells
  viability at 500 µM: 134%

## O=C(O)c1ccnc2ccccc12 [compound 368, quinoline‐4‐carboxylic acid]
TbINO1; [1]
  ΔTm at 1000 µM: 0.33 ± 0.08 °C
HeLa cells; [2]
  viability at 500 µM: 90.7 ± 7.5%
A549 cells
  viability at 500 µM: 90.3%

## CCOC(=O)Cc1csc(C)n1 [compound 494, ethyl 2‐(2‐methyl‐1,3‐thiazol‐4‐yl)acetate]
TbINO1; [1]
  ΔTm at 1000 µM: 0.99 ± 0.08 °C
HeLa cells; [2]
  viability at 500 µM: 103 ± 17.9%
A549 cells
  viability at 500 µM: 120%
